Consider 26 molecules from US9290496B2, “Purine derivatives” (PFIZER INC., priority 2013, dated 2016).

Experiment [1] concerns the target T1, EGFR wildtype, endogenous (A549) (Homo sapiens, UniProt P00533).
T1 construct: A549 (EGFR wildtype, endogenous); host or cells: A549 (stimulated with EGF)
In words: pEGFR Y1068 ELISA assay, A549 cells. Type of experiment: cell-based. The note with it: inhibition of phosphorylation of EGFR at Tyr1068; A549 NSCLC cells; 2 hr compound incubation, then stimulated 10 min with EGF (40 ng/mL). For orientation: An ELISA detects its analyte on a solid surface through an enzyme-linked reagent.
Procedure: (§1) Phosphorylation of EGFR at Y1068 was measured by PathScan® Phospho-EGF Receptor (Try1068) Sandwich ELISA kit (#7240, Cell Signaling Technology®, Danvers, Mass.). The PathScan® Phospho-EGF Receptor (Tyr1068) Sandwich ELISA Kit is a solid phase sandwich enzyme-linked immunosorbent assay (ELISA) that detects endogenous levels of phospho-EGF Receptor (Tyr1068) protein. […] All cells were cultured according to ATCC recommendations. A549, NCI-H1975, PC9, and NCI-H3255 cells were grown in RPMI media (Invitrogen, Carlsbad, Calif.) supplemented with 10% FBS (Sigma, St Louis, Mo.), and with 1% Penn/Strep (Invitrogen). PC9-DRH cells were grown in RPMI with 10% FBS and 1 μM dacomitinib.
(§2) Cells were plated at 40,000/well in complete culture media (50 μL/well) on the bottom of clear tissue culture treated microtiter plates (#3595, Corning Inc, Corning, N.Y.) and allowed to adhere overnight at 37° C., 5% CO2. The following day, compound dilution plates were prepared in 96 well clear V-bottom 0.5 mL polypropylene block plates (#3956, Corning, Inc). Each compound was prepared as a DMSO stock solution (10 mM). Compounds were tested in duplicate on each plate, with an 11-point serial dilution curve (1:3 dilution). Compound treatment (50 μL) was added from the compound dilution plate to the cell plate. […] Plates were then incubated for 2 hr at 37° C., 5% CO2. For A549 (EGFR wildtype) assay, cells were plated in full-serum (10%) media for 24 hr prior to compound treatment; cells were treated in full serum media as described and then stimulated for 10 min with EGF (40 ng/mL/starvation media, Invitrogen). Immediately prior to the end of the incubation, ice-cold lysis buffer was prepared (1× Cell Lysis Buffer (#9803, Cell Signaling Technology), 1 mM sodium orthovanadate (Na3VO4, #96508, Sigma), 1 mM phenylmethanesulfonyl fluoride (PMSF, 52332, CalBiochem/EMD Chemicals), complete Mini EDTA-free Protease Inhibitor Cocktail Tablet (1 tablet/10 mL, #11836170001, Roche, Indianapolis, Ind.), and PhosSTOP Phosphatase Inhibitor Cocktail Tablet (1 tablet/10 mL, #04906837001, Roche) in pure water. At the end of 2 hr, media was flicked off and cells were washed once with ice-cold 1 mM Na3VO4 in PBS (100 μL/well, Invitrogen). The wash was then flicked off and ice-cold lysis buffer was added to the cells (50 μL/well). The plate was shaken for 20-30 min at 4° C. to completely lyse the cells. Sample diluent (50 μL/well) was added to the ELISA plate, and the lysate (50 μL) was diluted into the sample diluent in each well of the ELISA plate. Plates were sealed and incubated overnight at 4° C. with shaking. The next day, wells were washed four times with 1× Wash Buffer; plates were taped on lint-free paper after the final wash prior to adding Add Detection Antibody (green, 100 μL/well) to each well and incubating for 1 hr at 37° C. After incubation, wells were washed as described. HRP-Linked secondary antibody (red, 100 μL/well) was added to each well and incubated for 30 min at 37° C. After incubation, the wells were washed as described. TMB Substrate (100 μL/well) was added to each well and the plate incubated for 10 min at 37° C. or 30 min at rt maximum. Stop Solution (100 μL/well) was added to each well at the end of the incubation and plates were shaken gently for a few seconds. Absorbance was read at 450 nm within 30 min after addition of Stop Solution on a PerkinElmer EnVision Excite Multilabel Reader Method for Absorbance or on a Molecular Devices SpectraMax^384 Reader for absorbance. Data were analyzed using a four-parameter fit in Microsoft Excel.

The target in experiment [2] is T2, EGFR L858R+T790M, endogenous (NCI-H1975) (Homo sapiens, UniProt P00533, L858R/T790M).
T2 construct: NCI-H1975 (EGFR L858R+T790M, endogenous); host or cells: NCI-H1975
T2 sequence (P00533 25-1210 T790M/L858R): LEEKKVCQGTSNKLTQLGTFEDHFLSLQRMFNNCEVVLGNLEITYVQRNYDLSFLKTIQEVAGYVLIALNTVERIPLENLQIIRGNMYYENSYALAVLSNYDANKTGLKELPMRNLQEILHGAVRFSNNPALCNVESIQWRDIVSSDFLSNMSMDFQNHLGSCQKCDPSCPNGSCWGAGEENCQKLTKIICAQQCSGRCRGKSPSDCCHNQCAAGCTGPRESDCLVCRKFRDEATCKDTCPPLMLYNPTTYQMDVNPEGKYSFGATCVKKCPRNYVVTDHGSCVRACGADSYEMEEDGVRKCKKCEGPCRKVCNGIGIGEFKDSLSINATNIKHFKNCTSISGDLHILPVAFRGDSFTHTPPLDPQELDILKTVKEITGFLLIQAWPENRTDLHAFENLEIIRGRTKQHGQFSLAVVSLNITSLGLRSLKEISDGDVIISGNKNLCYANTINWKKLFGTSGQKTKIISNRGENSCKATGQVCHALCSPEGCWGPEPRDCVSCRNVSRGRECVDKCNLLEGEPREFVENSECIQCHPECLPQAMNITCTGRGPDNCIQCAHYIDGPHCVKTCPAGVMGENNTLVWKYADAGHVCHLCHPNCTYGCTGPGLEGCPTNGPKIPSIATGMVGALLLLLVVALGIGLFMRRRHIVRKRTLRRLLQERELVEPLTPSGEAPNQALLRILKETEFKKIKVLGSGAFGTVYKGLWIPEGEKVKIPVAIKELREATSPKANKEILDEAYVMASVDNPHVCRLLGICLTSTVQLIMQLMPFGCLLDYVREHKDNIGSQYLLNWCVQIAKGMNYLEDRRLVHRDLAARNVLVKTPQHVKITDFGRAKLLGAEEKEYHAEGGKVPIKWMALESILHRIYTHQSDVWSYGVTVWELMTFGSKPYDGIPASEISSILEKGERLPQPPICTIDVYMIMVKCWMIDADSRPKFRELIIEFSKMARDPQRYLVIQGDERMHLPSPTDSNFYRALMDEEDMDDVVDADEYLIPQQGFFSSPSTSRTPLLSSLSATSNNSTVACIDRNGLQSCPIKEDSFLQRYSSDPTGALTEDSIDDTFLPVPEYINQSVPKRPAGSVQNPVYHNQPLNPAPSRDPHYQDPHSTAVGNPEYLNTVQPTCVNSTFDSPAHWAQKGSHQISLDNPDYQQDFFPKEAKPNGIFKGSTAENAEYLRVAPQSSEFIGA
In words: pEGFR Y1068 ELISA assay, NCI-H1975 cells. Type of experiment: cell-based. Particulars: inhibition of phosphorylation of EGFR at Tyr1068; NCI-H1975 NSCLC cells; 2 hr compound incubation.
Procedure: as §1, §2

T1 sequence (P00533 25-1210): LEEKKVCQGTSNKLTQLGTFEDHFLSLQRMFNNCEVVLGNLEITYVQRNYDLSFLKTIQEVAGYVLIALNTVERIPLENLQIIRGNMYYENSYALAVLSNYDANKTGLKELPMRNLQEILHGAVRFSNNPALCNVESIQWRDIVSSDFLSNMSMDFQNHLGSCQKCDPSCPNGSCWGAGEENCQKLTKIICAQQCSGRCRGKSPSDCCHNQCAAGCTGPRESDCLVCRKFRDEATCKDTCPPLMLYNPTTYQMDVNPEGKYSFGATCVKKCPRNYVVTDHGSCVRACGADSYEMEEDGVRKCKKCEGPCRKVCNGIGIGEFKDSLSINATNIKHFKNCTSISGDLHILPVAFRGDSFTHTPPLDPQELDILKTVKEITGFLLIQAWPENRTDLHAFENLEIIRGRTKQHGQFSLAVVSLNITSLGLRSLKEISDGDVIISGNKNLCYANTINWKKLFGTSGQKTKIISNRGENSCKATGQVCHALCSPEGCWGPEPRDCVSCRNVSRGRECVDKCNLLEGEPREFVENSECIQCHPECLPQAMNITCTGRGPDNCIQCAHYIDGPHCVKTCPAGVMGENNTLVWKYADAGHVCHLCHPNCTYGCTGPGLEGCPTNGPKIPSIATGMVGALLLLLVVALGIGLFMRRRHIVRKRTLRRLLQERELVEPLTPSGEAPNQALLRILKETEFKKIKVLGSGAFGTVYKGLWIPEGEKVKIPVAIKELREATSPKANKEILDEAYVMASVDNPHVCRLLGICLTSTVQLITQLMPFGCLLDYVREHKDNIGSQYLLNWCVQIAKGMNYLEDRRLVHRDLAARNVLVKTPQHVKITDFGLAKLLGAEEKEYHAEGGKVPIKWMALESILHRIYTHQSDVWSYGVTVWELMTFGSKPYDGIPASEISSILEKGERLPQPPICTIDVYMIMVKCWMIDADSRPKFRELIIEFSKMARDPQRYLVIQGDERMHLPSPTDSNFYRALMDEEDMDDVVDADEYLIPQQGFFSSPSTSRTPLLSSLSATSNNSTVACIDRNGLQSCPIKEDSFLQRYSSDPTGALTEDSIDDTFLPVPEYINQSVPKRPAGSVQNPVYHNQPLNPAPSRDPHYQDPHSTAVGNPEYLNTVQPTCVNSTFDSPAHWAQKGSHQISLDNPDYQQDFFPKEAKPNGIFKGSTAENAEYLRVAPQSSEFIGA

As usually defined, the IC50 is the concentration that gives 50% inhibition. Regarding `C=CC(=O)N[C@H]1CCN(c2nc(Nc3ccc(N4CCN(C)CC4)cc3)c3ncn(C4CCC4)c3n2)C1` [Example 15], the results for the IC50 in experiment [1] and in experiment [2] were 117 nM and 55 nM, respectively.

For the molecule `C=CC(=O)N[C@@H]1CN(c2nc(Nc3cnn(C4CCN(C)CC4)c3)c3ncn(C(C)C)c3n2)C[C@H]1F` [Example 71, N-((3R,4R)-4-fluoro-1-(9-isopropyl-6-((1-(1-methylpiperidin-4-yl)-1H-pyrazol-4-yl)amino)-9H-purin-2-yl)pyrrolidin-3-yl)acrylamide], the IC50 worked out at 167 nM in experiment [1] and 20 nM in experiment [2].

As for `C=CC(=O)N[C@@H]1CN(c2nc(Nc3cnn(CCN(C)C)c3)c3ncn(C(C)(C)C)c3n2)C[C@H]1F` [Example 68, N-((3R,4R)-1-(9-(tert-butyl)-6-((1-(2-(dimethylamino)ethyl)-1H-pyrazol-4-yl)amino)-9H-purin-2-yl)-4-fluoropyrrolidin-3-yl)acrylamide], the figures for the IC50 in experiment [1] and in experiment [2] were 707 nM and 18 nM, respectively.

For the molecule `C=CC(=O)N1CC[C@@H](Nc2nc(Nc3ccc(N4CCN(C)CC4)cc3)c3ncn(C(C)C)c3n2)C1` [Example 27, (R)-1-(3-((9-isopropyl-6-((4-(4-methylpiperazin-1-yl)phenyl)amino)-9H-purin-2-yl)amino)pyrrolidin-1-yl)prop-2-en-1-one], the IC50 in experiment [1] amounted to 387 nM; in experiment [2], 29 nM.

As for `C=CC(=O)N[C@H]1CCN(c2nc(Nc3cn(C)nc3OC)c3ncn(C(C)C)c3n2)C1` [Example 11, (S)-N-(1-(9-isopropyl-6-((3-methoxy-1-methyl-1H-pyrazol-4-yl)amino)-9H-purin-2-yl)pyrrolidin-3-yl)acrylamide], the half-maximal inhibitory concentration (IC50) was found to be 2840 nM in experiment [1] and 162 nM in experiment [2].

For the molecule `C=CC(=O)N[C@@H]1CN(c2nc(Nc3cn(CC(C)O)nc3OC)c3ncn(C)c3n2)C[C@H]1F` (stereo partly drawn) [Example 83, N-((3R,4R)-4-fluoro-1-(6-((1-(2-hydroxypropyl)-3-methoxy-1H-pyrazol-4-yl)amino)-9-methyl-9H-purin-2-yl)pyrrolidin-3-yl)acrylamide], the IC50 amounted to 3450 nM in experiment [1] and 132 nM in experiment [2].

In the case of `C=CC(=O)N1CCC(Oc2nc(Nc3cnn(C)c3)c3ncn(C(C)C)c3n2)C1` (stereo in doubt) [Example 59, (R)-1-(3((9-isopropyl-6-((1-methyl-1H-pyrazol-4-yl)amino)-9H-purin-2-yl)oxy)pyrrolidin-1-yl)prop-2-en-1-one], the IC50 in experiment [1] was determined as 4050 nM; in experiment [2], 162 nM.

On to `C=CC(=O)N1CC(C)(Nc2nc(Nc3cnn(C)c3)c3ncn(C(C)C)c3n2)C1` [Example 32, 1-(3-((9-isopropyl-6-((1-methyl-1H-pyrazol-4-yl)amino)-9H-purin-2-yl)amino)-3-methylazetidin-1-yl)prop-2-en-1-one], for which the IC50 in experiment [1] stood at 1230 nM; in experiment [2], 65 nM.

For the molecule `C=CC(=O)N1C[C@@H]2CN(c3nc(Nc4cnn(C)c4)c4ncn(C(C)C)c4n3)C[C@]2(F)C1` (relative stereo) [Example 73, 1-(cis-3a-fluoro-5-(9-isopropyl-6-((1-methyl-1H-pyrazol-4-yl)amino)-9H-purin-2-yl)hexahydropyrrolo[3,4-c]pyrrol-2(1H)-yl)prop-2-en-1-one], the IC50 in experiment [1] worked out at 92 nM; in experiment [2], 9 nM.

On to `C=CC(=O)NC1CN(c2nc(Nc3ccc(N4CCN(C)CC4)cc3)c3ncn(C(C)C)c3n2)C1` [Example 23, N-(1-(9-isopropyl-6-((4-(4-methylpiperazin-1-yl)phenyl)amino)-9H-purin-2-yl)azetidin-3-yl)acrylamide], for which the IC50 in experiment [1] was found to be 1420 nM; in experiment [2] it was 39 nM.

On to `C=CC(=O)N1C[C@H](Nc2nc(Nc3cnn(C)c3)c3ncn(C(C)C)c3n2)[C@@H](F)C1` (relative stereo) [Example 58, 1-((trans)-3-fluoro-4-((9-isopropyl-6-((1-methyl-1H-pyrazol-4-yl)amino)-9H-purin-2-yl)amino)pyrrolidin-1-yl)prop-2-en-1-one], for which the results for the IC50 in experiment [1] and in experiment [2] were 983 nM and 58 nM, respectively.

Consider `C=CC(=O)N1CCCC(c2nc(Nc3cnn(C)c3)c3ncn(C(C)C)c3n2)C1` (single isomer, unassigned) [Example 6, 1-(3-(9-isopropyl-6-((1-methyl-1H-pyrazol-4-yl)amino)-9H-purin-2-yl)piperidin-1-yl)prop-2-en-1-one], for which the IC50 in experiment [1] is at least 10000 nM; in experiment [2] it was 1040 nM.

`C=CC(=O)N[C@@H]1CN(c2nc(Nc3ccc(N4CCN(C)CC4)cc3)c3ncn(C(C)C)c3n2)C[C@H]1OC` (relative stereo) [Example 47, N-((trans)-1-(9-isopropyl-6-((4-(4-methylpiperazin-1-yl)phenyl)amino)-9H-purin-2-yl)-4-methoxypyrrolidin-3-yl)acrylamide] displayed an IC50 in experiment [2] of 14 nM.

With `C=CC(=O)N[C@H]1CN(c2nc(Nc3cnn(CCN(C)C)c3)c3ncn(C(C)C)c3n2)C[C@@H]1F` [Example 67, N-((3S,4S)-1-(6-((1-(2-(dimethylamino)ethyl)-1H-pyrazol-4-yl)amino)-9-isopropyl-9H-purin-2-yl)-4-fluoropyrrolidin-3-yl)acrylamide], the IC50 in experiment [1] is 90 nM; in experiment [2], 8 nM.

For `C=CC(=O)N1C[C@H](Nc2nc(Nc3cnn(C)c3)c3ncn(C(C)C)c3n2)[C@@H](F)C1` (single isomer, unassigned) [Example 30, 1-((trans*)-3-fluoro-4-((9-isopropyl-6-((1-methyl-1H-pyrazol-4-yl)amino)-9H-purin-2-yl)amino)pyrrolidin-1-yl)prop-2-en-1-one], the IC50 in experiment [1] was determined as 3850 nM; in experiment [2], 82 nM.

With `C=CC(=O)N(C)C1CN(c2nc(Nc3cnn(C)c3)c3ncn(C(C)C)c3n2)C1` [Example 31, N-(1-(9-isopropyl-6((1-methyl-1H-pyrazol-4-yl)amino)-9H-purin-2-yl)azetidin-3-yl)-N-methylacrylamide], the IC50 in experiment [1] is 1350 nM; in experiment [2], 76 nM.

As to `C=CC(=O)N[C@H]1CCN(c2nc(Nc3ccc(N4CCN(C)CC4)cc3)c3ncn(CC)c3n2)C1` [Example 35, (S)-N-(1-(9-ethyl-6-((4-(4-methylpiperazin-1-yl)phenyl)amino)-9H-purin-2-yl)pyrrolidin-3-yl)acrylamide], the IC50 was 95 nM in experiment [1] and 11 nM in experiment [2].

With `C=CC(=O)N[C@@H]1CN(c2nc(Nc3cn(CC(C)O)nc3OC)c3ncn(CC)c3n2)C[C@H]1F` (stereo partly drawn) [Example 86, N-((3R,4R)-1-(9-ethyl-6-((1-(2-hydroxypropyl)-3-methoxy-1H-pyrazol-4-yl)amino) -9H-purin-2-yl)-4-fluoropyrrolidin-3-yl)acrylamide], the results for the IC50 in experiment [1] and in experiment [2] were 1220 nM and 32 nM, respectively.

For the molecule `C=CC(=O)N[C@H]1C[C@H](Oc2nc(Nc3ccc(N4CCN(C)CC4)cc3)c3ncn(C(C)C)c3n2)C1` [Example 14, N-((trans)-3-((9-isopropyl-6-((4-(4-methylpiperazin-1-yl)phenyl)amino)-9H-purin-2-yl)oxy)cyclobutyl)acrylamide], the figures for the IC50 in experiment [1] and in experiment [2] were at least 10000 nM and 285 nM, respectively.

In the case of `C=CC(=O)N[C@H]1CCN(c2nc(Nc3cnn([C@H]4CCN(C)C4)c3)c3ncn(C(C)C)c3n2)C1` [Example 69, N—((S)-1-(9-isopropyl-6-((1-((S)-1-methylpyrrolidin-3-yl)-1H-pyrazol-4-yl)amino) -9H-purin-2-yl)pyrrolidin-3-yl)acrylamide], the IC50 in experiment [1] was 712 nM; in experiment [2], 37 nM.

In the case of `C=CC(=O)N[C@H]1CCN(c2nc(Nc3ccc(N4CCN(C)CC4)cc3)c3ncn(C(C)CO)c3n2)C1` (stereo partly drawn) [Example 48, N-((3S)-1-(9-(1-hydroxypropan-2-yl)-6-((4-(4-methylpiperazin-1-yl)phenyl)amino) -9H-purin-2-yl)pyrrolidin-3-yl)acrylamide], the IC50 in experiment [1] stood at 4360 nM; in experiment [2], 204 nM.

For the molecule `C=CC(=O)N[C@H]1CCN(c2nc(Nc3cn(C)nc3C)c3ncn(C(C)C)c3n2)C1` [Example 37, (S)-N-(1-(6-((1,3-dimethyl-1H-pyrazol-4-yl)amino)-9-isopropyl-9H-purin-2-yl)pyrrolidin-3-yl)acrylamide], the IC50 in experiment [1] was 7610 nM; in experiment [2] it was 391 nM.

On to `C=CC(=O)N1C[C@@H]2CN(c3nc(Nc4cnn(C)c4)c4ncn(C)c4n3)C[C@@H]2C1` [Example 34, 1-((cis)-5-(9-methyl-6-((1-methyl-1H-pyrazol-4-yl)amino)-9H-purin-2-yl)hexahydropyrrolo[3,4-c]pyrrol-2(1H)-yl)prop-2-en-1-one], for which the results for the IC50 in experiment [1] and in experiment [2] were 2670 nM and 161 nM, respectively.

For the molecule `C=CC(=O)N(C)C1CN(c2nc(Nc3ccc(N4CCN(C)CC4)cc3)c3ncn(C(C)C)c3n2)C1` [Example 24, N-(1-(9-isopropyl-6-((4-(4-methylpiperazin-1-yl)phenyl)amino)-9H-purin-2-yl)azetidin-3-yl)-N-methylacrylamide], the IC50 in experiment [1] turned out to be 1140 nM; in experiment [2], 39 nM.

Turning to `C=CC(=O)NC1(C)CCN(c2nc(Nc3ccc(N4CCN(C)CC4)cc3)c3ncn(C(C)C)c3n2)C1` (stereo not drawn) [Example 10, N-(1-(9-isopropyl-6-((4-(4-methylpiperazin-1-yl)phenyl)amino)-9H-purin-2-yl)-3-methylpyrrolidin-3-yl)acrylamide], the results for the IC50 in experiment [1] and in experiment [2] were at least 10000 nM and 846 nM, respectively.

Turning to `C=CC(=O)N1CC[C@@H](Oc2nc(Nc3ccc(N4CCN(C)CC4)cc3)c3ncn(C(C)C)c3n2)C1` [Example 26, (R)-1-(3-((9-isopropyl-6-((4-(4-methylpiperazin-1-yl)phenyl)amino)-9H-purin-2-yl)oxy)pyrrolidin-1-yl)prop-2-en-1-one], the IC50 in experiment [1] was found to be 682 nM; in experiment [2], 25 nM.
